Experimental data taken from patent US10272036B2, “Composition for oral delivery of bioactive agents” (priority 2013, dated 2019).

What was measured:
BALB/C mice [1] = system: BALB/C mice
Description: Experimental Methods: Ten-twelve week old female BALB/C mice are used. Mice are fed ad libitum. Each experimental group is housed in a separate cage.
Three groups of 4 mice are each fed ad libitum as follows: 1) Inventive Warfarin composition, mixed in baits at 4% Warfarin activity, 2) Unencapsulated Warfarin, mixed in baits feed at 4% activity, 3) Bait containing a composition as in Example 3, containing no Warfarin or other bioactive. The feed intake and kill effect on the mice are monitored.

Rodents = settings: cited from earlier work
[2] = Degradation of unprotected protein antigen (OVA) activity in simulated gastric juice; format: physicochemical; settings: simulated gastric fluid, 0.08% pepsin, pH-2, 37° C.
Method: Western Blot: the compositions were lysed with RIPA buffer as described above, and a calculated amount equivalent to 12 μg of protein per sample was loaded on a 10% SDS-polyacrylamide gradient gel (SDS-PAGE, Bio-Rad, Hercules, Calif.). Proteins were transferred onto a PVDF membrane (Bio-Rad) and blocked for 1 h with 5% non-fat milk in PBS containing 0.5% Tween-20 (PBS-T). Blots were incubated with an appropriate primary antibody at 1:5000 dilutions for 1 h at room temperature. After washing with PBS-T (3×10 mL, 5 min. each), the membranes were incubated with an appropriate HRP-conjugated secondary antibody (EMD Millipore Corporation, Billerica, Mass., USA) at 1:5000 dilution for 1 h. After washing with PBS-T (3×10 mL, 5 min. each), chemiluminescent films were developed with an ECL substrate (Amsheram Biosciences).
To evaluate the loss of activity of a protein antigen following a typical gastric exposure, non-encapsulated OVA (10 mg) was incubated in 10 ml simulated gastric fluid containing 0.08% pepsin at pH-2 for 2 h at 37° C. on a shaker. Medium was withdrawn at 15 min, 30 min, 60 min and 120 min incubation times, and the amount of residual OVA was analyzed using Western Blot analysis as described above.

BALB/C mice [3] = experiment: Oral administration of OVA composition to mice, immune response (ELISA IgG/IgA, ASC); format: in vivo; settings: OVA solution subcutaneously (SC), 0 and 3 weeks, read at week 4, expected
Method: Ovalbumin is orally administered to mice to test the efficacy of the inventive compositions in inducing an immune response.
Ovalbumin composition: Ovalbumin (1 mg/g of ovalbumin, Sigma, St. Louis, Mo.,) is incorporated into the inventive composition as described in Example 5. Three groups of 4 mice each are inoculated as follows: 1) ovalbumin (OVA) in the composition, administered orally, 2) OVA solution, administered subcutaneously (SC), 3) antigen free composition administered orally. Mice are inoculated at 0 and 3 weeks. Each dose administers a total 100 mg of dry composition mixed with corn oil at a ratio of 1:2 w/w of dry composition/oil, coated onto feed pellets. At week 4 each mouse is euthanized and serum and spleen cells are harvested.
Immunological assays: Serum is assayed for IgG and IgA by ELISA. ELISA is performed using OVA absorbed to polystyrene plates. Samples are placed in wells in triplicate at a 1:25 dilution for serum. […] Optical density of each well is determined by placing the plate in a microtiter plate spectrophotometer and reading the plate at 490 nm. […]
The OVA specific IgG and IgA antibodies are quantified by determining the increase in optical density over time. […] No OVA specific IgG or IgA antibodies are expected to be detected in mice fed antigen free composition.

[4] = rodents ingesting baits containing Warfarin

Molecule	kill effect on the mice (BALB/C mice [1]; after 8 h from feeding, expected)	feed intake, less than groups 1 and 3 (BALB/C mice [1]; baits at 4% Warfarin activity, ad libitum)	time to recovery (Rodents; rodents after a sublethal amount of Warfarin) [h]	time to become unconscious (Rodents; [4]) [h]	time to obvious symptoms of poisoning (Rodents; [4]) [min]	Remaining activity (%) ([2]; 15 min, relative to pre-exposure activity)	Remaining activity (%) ([2]; 30 min)	Remaining activity (%) ([2]; 60 min)	Remaining activity (%) ([2]; 120 min)	OVA specific serum IgA, IgG and ASC secreting cells (BALB/C mice [3])
CC(=O)CC(c1ccccc1)c1c(O)c2ccccc2oc1=O (stereo not shown) [Warfarin]	all group 2 mice remain alive	over 25%	≤ 8	1 to 2	15 to 30	–	–	–	–	–
ovalbumin (protein, UniProt P01012 2-386, looked up, Ovalbumin, model vaccine / protein antigen, unprotected or as solution) Ovalbumin: GSIGAASMEFCFDVFKELKVHHANENIFYCPIAIMSALAMVYLGAKDSTRTQINKVVRFDKLPGFGDSIEAQCGTSVNVHSSLRDILNQITKPNDVYSFSLASRLYAEERYPILPEYLQCVKELYRGGLEPINFQTAADQARELINSWVESQTNGIIRNVLQPSSVDSQTAMVLVNAIVFKGLWEKAFKDEDTQAMPFRVTEQESKPVQMMYQIGLFRVASMASEKMKILELPFASGTMSMLVLLPDEVSGLEQLESIINFEKLTEWTSSNVMEERKIKVYLPRMKMEEKYNLTSVLMAMGITDVFSSSANLSGISSAESLKISQAVHAAHAEINEAGREVVGSAEAGVDAASVSEEFRADHPFLFCIKHIATNAVLFFGRCVSP	–	–	–	–	–	61	55	38	2	equally increased
